# Assays:
# [1] = test system: TNF-α; assay: in vivo LPS induced TNF-α production, mice; set-up: species or system Mice (BALB/cJ females); conditions: 25 mg/kg, oral, LPS 1 mg/kg i.p.
# Method: (§1) Thirty minutes after dosing, the animals were injected intraperitoneally with LPS at 1 mg/kg and returned to their cages for 1 h. Animals were anesthetized by CO2, exsanguinated by cardiac puncture and whole blood collected (0.1-0.7 mL). The blood was allowed to clot and serum was transferred to a centrifuge tube. This sample was centrifuged, serum was collected, aliquoted and frozen at −80° C. Samples were tested by commercial ELISAs for TNF-α (Endogen for mouse TNF-α and Biosource for rat TNF-α).
# [2] = test system: TNF-α; assay: in vitro whole cell assay, LPS-stimulated PBMC, TNF-α ELISA; format: cell-based; conditions: LPS-stimulated human PBMC
# Method: Aside from the enzyme assay, many of the compounds of the invention were tested in an in vitro whole cell assay using peripheral blood mononuclear cells (“PBMC”) which were obtained from human blood as follows. Freshly obtained venous blood was anticoagulated with heparin, diluted with an equal volume of phosphate buffered saline (“PBS”) and placed in a sterile tube or other container. Aliquots (30 mL) of this mixture were transferred to centrifuge tubes which were underlaid with Ficoll-Hypaque (15 mL). The prepared tubes were centrifuged at 400×g without braking for 30 min at room temperature. Approximately ½ to ⅔ of the platelet layer above the mononuclear cell band was removed with a pipette. The majority of the mononuclear cell layer was carefully removed using a pipette and these PBMCs were diluted with PBS and spun at 600×g for 15 min. […] A small volume of the suspension was removed for counting on a hemocytometer and the remaining preparation was centrifuged at 200×g for 15 min at room temperature. The recovered pelleted PMBC were resuspended in RPMI/1% FCS to a concentration of 1.67×10^6/mL. To run the assay, the PBMC suspension (180 μL) was transferred to duplicate wells of a 96-well flat-bottom microtiter plate and incubated for 1 h at 37° C. […] A solution (10 μL) of LPS in RPMI/1% FCS (200 ng/mL) was added and the wells were incubated overnight at 37° C. The supernate ([…]) was removed from each well and diluted with RPMI/1% FCS (400 μL). The samples were analyzed for TNF-α using a commercial ELISA kit (Genzyme).
# [3] = test system: IL-1β; assay: in vitro IL-1β assay, plastic-adherent cells from PBMC, LPS stimulation, ELISA; format: cell-based; conditions: Homo sapiens, read-out: inhibition of production of IL-1β, IC50
# Method: The IL-1β activity of select compounds of the invention was determined by the following in vitro assay. Plastic-adherent cells were prepared from PBMC. Briefly, PBMCs were added to the wells of a 96-well plate as above, incubated for 1 h at 37° C., and the adherent cells prepared by gently resuspending the non-adherent cells with a pipettor, removing and discarding them and gently washing the wells 3 times with 200 μL culture medium. Additional culture medium (180 μL) was added to the wells after the final wash. Compound addition, LPS stimulation, incubation and supernate harvest were as for TNF-α. Supernates were assayed for interleukin-1β using a commercial ELISA (Genzyme).
# [4] = biological target: T1, purified recombinant p38 (Homo sapiens, UniProt Q16539); assay: p38 in vitro enzyme assay (33P-ATP, myelin basic protein substrate); format: biochemical; conditions: for IC50: read-out: p-38 IC50
# T1 construct: 6xHis; made in house; host or cells: E. coli
# Method: As discussed previously, agents which inhibit the activity of the enzyme p38, inhibit the production of the inflammatory cytokines TNF-α, and IL-1β. Compounds of the invention were measured for their ability to inhibit the activity of p38 by the following in vitro assay.
# A solution (38 μL) of purified recombinant p38 (where the amount of enzyme was determined empirically considering the linear range of the assay and the acceptable signal to noise ratio; 6×His-p38 expressed in E.coli), myelin basic protein substrate (also determined empirically), a buffer of pH 7.5 (Hepes:25 mM, MgCl2:10 mM, MnCl2:10 mM) were added to 92 wells of a 96-well round bottom polypropylene plate. The remaining wells were used for control (“CTRL”) and background (“BKG”). The CTRL was prepared with the enzyme, substrate buffer and 2% DMSO, and the BKG was prepared with substrate buffer and 2% DMSO. A solution (12 μL) of the test compound in DMSO (compounds were diluted to 125 μM in 10% DMSO/H2O and assayed at 25 μM where the final DMSO concentration was 2%) was added to the testing wells. The ATP/^33P-ATP solution (10 μL: containing 50 μM unlabeled ATP and 1 μCi ^33P-ATP) was added to all wells and the completed plates were mixed and incubated at 30° C. for 30 min. Ice-cold 50% TCA/10 mM sodium phosphate (60 μL) were added to each well and the plates were kept on ice for 15 min. The contents of each well were transferred to the wells of a 96-well filterplate (Millipore, MultiScreen-DP) and the filterplate was placed on a vacuum manifold, fitted with a waste collection tray. The wells were washed five times with 10% TCA/10 mM sodium phosphate (200 μL) under vacuum. MicroScint-20 scintillant was added, the plates were sealed using Topseal-S sheets and counted in a Packard TopCount scintillation counter using a ^33P liquid program with color quench correction, where the output is in color quench-corrected cpm. The % inhibition of the test compounds was calculated by the following formula: % inhibition=[1−(sample -BKG)/(CTRL-BKG)]×100.
# Although compounds were initially tested at […], if warranted the compounds were tested at 4-fold increments above and below that concentration. In addition, IC50s were calculated for some compounds using the Deltagraph 4-parameter curve fitting program.
# [5] = test system: TNF-α; assay: in vivo LPS induced TNF-α production, rats; set-up: species or system rats (Lewis males); conditions: 25 mg/kg, oral, LPS 1 mg/kg i.p.
# Method: as §1
# T1 sequence (Q16539 whole entry): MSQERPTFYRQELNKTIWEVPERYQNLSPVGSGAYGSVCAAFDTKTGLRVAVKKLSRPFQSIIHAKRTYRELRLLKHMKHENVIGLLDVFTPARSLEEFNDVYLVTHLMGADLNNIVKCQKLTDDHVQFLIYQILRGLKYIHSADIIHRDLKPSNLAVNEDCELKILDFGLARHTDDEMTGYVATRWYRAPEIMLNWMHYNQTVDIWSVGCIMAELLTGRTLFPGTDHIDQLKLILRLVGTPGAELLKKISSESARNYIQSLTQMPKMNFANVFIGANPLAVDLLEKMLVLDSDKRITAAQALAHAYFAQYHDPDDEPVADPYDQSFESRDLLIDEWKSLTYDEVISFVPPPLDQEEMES
SMILES,IC50 [2] [nM],further results
OCCC#Cc1nc(-c2ccc(F)cc2)c(-c2ccncc2)n1CCCc1ccccc1 [Cpd. 4],3,% Inhibition TNF-α Mice [1]: 49.6%; IC50 [3]: 7 nM; IC50 [4]: 650 nM; % Inhibition TNF-α Rats [5]: 91%
Fc1ccc(-c2[nH]c(/C=C/Cl)nc2-c2ccncc2)cc1 [compound 8],,IC50 [4]: 1500 nM
C[Si](C)(C)CCOCn1c(C=C(Br)Br)nc(-c2ccncc2)c1-c1ccc(F)cc1 [compound 10],,p-38 % inhibition ([4]; @ 5 μm): 16% @ 5 μm
O/N=C/c1nc(-c2ccncc2)c(-c2ccc(F)cc2)[nH]1 [compound 13],45,
Fc1ccc(-c2nc(C#CCCCCl)n(CCCc3ccccc3)c2-c2ccncc2)cc1 [compound 14],4,
O=C(Nc1ccccc1)OCCC#Cc1nc(-c2ccc(F)cc2)c(-c2ccncc2)n1CCCc1ccccc1 [compound 15],38,
Fc1ccc(-c2nc(C#CCCCl)n(CCCc3ccccc3)c2-c2ccncc2)cc1 [compound 16],6,
CN(C)CCC#Cc1nc(-c2ccc(F)cc2)c(-c2ccncc2)n1CCCc1ccccc1 [compound 17],3,
C[Si](C)(C)CCOCn1c(C=C(Br)Br)nc(-c2ccc(F)cc2)c1-c1ccncc1 [compound 18],1500,
OCCCC#Cc1nc(-c2ccc(F)cc2)c(-c2ccncc2)[nH]1 [compound 19],85,% Inhibition TNF-α Mice [1]: 29%
C[Si](C)(C)CCOCn1c(C#CCCO)nc(-c2ccncc2)c1-c1ccc(F)cc1 [compound 20],> 10000,
OCCC#Cc1nc(-c2ccc(F)cc2)c(-c2ccncc2)[nH]1 [compound 21],80,
O=C1c2ccccc2C(=O)N1CCCC#Cc1nc(-c2ccc(F)cc2)c(-c2ccncc2)[nH]1 [compound 22],700,
OCCCCC#Cc1nc(-c2ccc(F)cc2)c(-c2ccncc2)[nH]1 [compound 24],100,% Inhibition TNF-α Mice [1]: 73%
CCCC#Cc1nc(-c2ccncc2)c(-c2ccc(F)cc2)n1COCC[Si](C)(C)C [compound 26],> 2000,% Inhibition TNF-α Mice [1]: 0%
CCCC#Cc1nc(-c2ccncc2)c(-c2ccc(F)cc2)[nH]1 [compound 28],80,% Inhibition TNF-α Mice [1]: 88%
O=C1c2ccccc2C(=O)N1CCCC#Cc1nc(-c2ccncc2)c(-c2ccc(F)cc2)[nH]1 [compound 29],200,
C#Cc1nc(-c2ccc(F)cc2)c(-c2ccncc2)[nH]1 [compound 30],150,
Fc1ccc(-c2nc(C#CBr)[nH]c2-c2ccncc2)cc1 [compound 31],250,

SMILES,IC50 [2] [nM],further results
Fc1ccc(-c2nc(C=NOCc3ccccc3)[nH]c2-c2ccncc2)cc1 [compound 32],80,
O=[N+]([O-])c1ccc(CON=Cc2nc(-c3ccc(F)cc3)c(-c3ccncc3)[nH]2)cc1 [compound 33],150,
CCCC#Cc1nc(-c2ccc(F)cc2)c(-c2ccncc2)n1CCCc1ccccc1 [compound 34],10,% Inhibition TNF-α Mice [1]: 53%
OCCCC#Cc1nc(-c2ccc(F)cc2)c(-c2ccncc2)n1CCCc1ccccc1 [compound 35],8,% Inhibition TNF-α Mice [1]: 68%; p-38 % inhibition ([4]; @ 20 μm): 99% @ 20 μm
N#CCCCC#Cc1nc(-c2ccc(F)cc2)c(-c2ccncc2)n1CCCc1ccccc1 [compound 36],9,% Inhibition TNF-α Mice [1]: 69.3%; IC50 [3]: 13 nM; IC50 [4]: 1500 nM
O=C1c2ccccc2C(=O)N1CCCn1c(C#CCCO)nc(-c2ccc(F)cc2)c1-c1ccncc1 [compound 37],160,
Fc1ccc(-c2nc(C#CCCCc3ccccc3)n(CCCc3ccccc3)c2-c2ccncc2)cc1 [compound 38],40,
CCCCSCCCC#Cc1nc(-c2ccc(F)cc2)c(-c2ccncc2)n1CCCc1ccccc1 [compound 39],200,
CCCCS(=O)(=O)CCCC#Cc1nc(-c2ccc(F)cc2)c(-c2ccncc2)n1CCCc1ccccc1 [compound 40],6.5,
OCCCCC#Cc1nc(-c2ccc(F)cc2)c(-c2ccncc2)n1CCCc1ccccc1 [compound 43],5.2,% Inhibition TNF-α Mice [1]: 53%; p-38 % inhibition ([4]; @ 20 μm): 98% @ 20 μm
Fc1ccc(-c2nc(C=C(Br)Br)[nH]c2-c2ccncc2)cc1 [compound 44],200,p-38 % inhibition ([4]; @ 20 μm): 93% @ 20 μm
C[Si](C)(C)CCOCn1c(C#CCCCN2C(=O)CCC2=O)nc(-c2ccc(F)cc2)c1-c1ccncc1 [compound 45],650,
N#CC=Cc1nc(-c2ccc(F)cc2)c(-c2ccncc2)[nH]1 [compound 46],250,
OCC#Cc1nc(-c2ccc(F)cc2)c(-c2ccncc2)n1CCCc1ccccc1 [compound 47],7.2,
COCCC#Cc1nc(-c2ccc(F)cc2)c(-c2ccncc2)n1CCCc1ccccc1 [compound 49],3,
O=C(OCCC#Cc1nc(-c2ccc(F)cc2)c(-c2ccncc2)n1CCCc1ccccc1)c1ccccc1 [compound 50],2,
C=CC#Cc1nc(-c2ccc(F)cc2)c(-c2ccncc2)n1CCCc1ccccc1 [compound 51],5.5,
CC(=O)OCCC#Cc1nc(-c2ccc(F)cc2)c(-c2ccncc2)n1CCCc1ccccc1 [compound 52],2.6,

# From US6521655B1, “Substituted imidazoles useful in the treatment of inflammatory diseases” (Ortho-McNeil Pharmaceutical, Inc., priority 1997, dated 2003)
